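Growth conditions: 96-well plates. Treatment: test compound, 48 hours, 5 concentrations. Analysis: linear interpolation between bracketing concentrations; unreached endpoints set to highest concentration. TGI is the concentration that stops growth completely.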
Tests used:
Test in all cases: NCI tumour cell line growth inhibition, 48 h
[1] = tested on: HL-60(TB) leukemia
[2] = tested on: NCI-H460 lung
[3] = tested on: CAKI-1 renal
[4] = tested on: UACC-257 melanoma
[5] = tested on: M19-MEL melanoma
[6] = tested on: IGROV1 ovarian
[7] = tested on: SF-295 CNS
[8] = tested on: OVCAR-5 ovarian
[9] = tested on: SN12K1 renal
[10] = tested on: DMS 273 small cell lung
[11] = tested on: HCT-116 colon
[12] = tested on: OVCAR-8 ovarian
[13] = tested on: MALME-3M melanoma
[14] = tested on: KM20L2 colon
[15] = tested on: NCI-H23 lung
[16] = tested on: NCI/ADR-RES ovarian
[17] = tested on: A498 renal
[18] = tested on: SNB-19 CNS
[19] = tested on: SK-MEL-5 melanoma
[20] = tested on: HT29 colon
[21] = tested on: NCI-H522 lung
[22] = tested on: SNB-75 CNS
[23] = tested on: K-562 leukemia
[24] = tested on: SK-OV-3 ovarian
[25] = tested on: COLO 205 colon
[26] = tested on: DMS 114 small cell lung
[27] = tested on: HCT-15 colon
[28] = tested on: HOP-18 NSCLC
[29] = tested on: SF-539 CNS
[30] = tested on: SK-MEL-2 melanoma
[31] = tested on: U251 CNS
[32] = tested on: RXF 393 renal
[33] = tested on: MCF7 breast
[34] = tested on: EKVX NSCLC
[35] = tested on: LOX IMVI melanoma
[36] = tested on: OVCAR-3 ovarian
[37] = tested on: SF-268 CNS
[38] = tested on: A549 NSCLC
[39] = tested on: SW-620 colon
[40] = tested on: SK-MEL-28 melanoma
[41] = tested on: SNB-78 CNS
[42] = tested on: DLD-1 colon
[43] = tested on: SN12C renal
[44] = tested on: XF 498 CNS
[45] = tested on: CCRF-CEM leukemia
[46] = tested on: UO-31 renal
[47] = tested on: OVCAR-4 ovarian
[48] = tested on: P388/ADR leukemia
[49] = tested on: HCC-2998 colon
[50] = tested on: NCI-H226 lung
[51] = tested on: UACC-62 melanoma
[52] = tested on: HOP-92 NSCLC
[53] = tested on: HOP-62 NSCLC
[54] = tested on: RPMI-8226 leukemia
[55] = tested on: RXF-631 renal
[56] = tested on: M14 melanoma
[57] = tested on: ACHN renal
[58] = tested on: MOLT-4 leukemia
[59] = tested on: 786-0 renal
[60] = tested on: KM12 colon
[61] = tested on: TK-10 renal
[62] = tested on: SR leukemia
[63] = tested on: LXFL 529 NSCLC

Structure (SMILES): O=C1c2cccc3cc4ccccc4c(c23)C(=O)N1CCNCCN1C(=O)c2cccc3cc4ccccc4c(c23)C1=O
- TGI [1]: 0.619 µM
- TGI [2]: 0.278 µM
- TGI [3]: 1.04 µM
- TGI [4]: 2.74 µM
- TGI [5]: 1.78 µM
- TGI [6]: 3.56 µM
- TGI [7]: 0.906 µM
- TGI [8]: 1.77 µM
- TGI [9]: 6.96 µM
- TGI [10]: 1 µM
- TGI [11]: 1.98 µM
- TGI [12]: 2.31 µM
- TGI [13]: 1.77 µM
- TGI [14]: 2.22 µM
- TGI [15]: 1.21 µM
- TGI [16]: 3.11 µM
- TGI [17]: 2.26 µM
- TGI [18]: 2.11 µM
- TGI [19]: 1.84 µM
- TGI [20]: 1.69 µM
- TGI [21]: 3.6 µM
- TGI [22]: 1.27 µM
- TGI [23]: 1.47 µM
- TGI [24]: 5.8 µM
- TGI [25]: 2.22 µM
- TGI [26]: 0.78 µM
- TGI [27]: 1.53 µM
- TGI [28]: 0.879 µM
- TGI [29]: 2.2 µM
- TGI [30]: 3.15 µM
- TGI [31]: 1.24 µM
- TGI [32]: 1.82 µM
- TGI [33]: 5.17 µM
- TGI [34]: 2.23 µM
- TGI [35]: 1.27 µM
- TGI [36]: 2.41 µM
- TGI [37]: 2.55 µM
- TGI [38]: 0.982 µM
- TGI [39]: 1.87 µM
- TGI [40]: 2.65 µM
- TGI [41]: 1.82 µM
- TGI [42]: 3.8 µM
- TGI [43]: 1.59 µM
- TGI [44]: 0.82 µM
- TGI [45]: 1.04 µM
- TGI [46]: 1.57 µM
- TGI [47]: 2.14 µM
- TGI [48]: 0.611 µM
- TGI [49]: 2.23 µM
- TGI [50]: 6.12 µM
- TGI [51]: 1.13 µM
- TGI [52]: 1.75 µM
- TGI [53]: 4.92 µM

Structure (SMILES): [O-][n+]1c(-c2ccccc2)oc2ccccc21
- TGI [54]: > 69.2 µM
- TGI [1]: 79.9 µM
- TGI [2]: 20.2 µM
- TGI [3]: > 55.7 µM
- TGI [4]: 22.6 µM
- TGI [5]: 3.59 µM
- TGI [6]: > 100 µM
- TGI [55]: > 100 µM
- TGI [7]: 27.6 µM
- TGI [56]: 24.8 µM
- TGI [57]: 39.4 µM
- TGI [8]: 67.1 µM
- TGI [10]: 28 µM
- TGI [11]: 41.9 µM
- TGI [12]: > 100 µM
- TGI [13]: 28.1 µM
- TGI [14]: 43.1 µM
- TGI [15]: 38.7 µM
- TGI [17]: 34.8 µM
- TGI [18]: > 65.1 µM
- TGI [19]: 6.81 µM
- TGI [20]: 59.1 µM
- TGI [21]: 17.5 µM
- TGI [58]: > 100 µM
- TGI [22]: 32.7 µM
- TGI [23]: > 100 µM
- TGI [59]: 62.4 µM
- TGI [24]: > 100 µM
- TGI [25]: 33.6 µM
- TGI [26]: 16.4 µM
- TGI [27]: 24.3 µM
- TGI [28]: 20.1 µM
- TGI [29]: 31.5 µM
- TGI [30]: 40.4 µM
- TGI [31]: > 85.8 µM
- TGI [32]: 55.6 µM
- TGI [60]: > 100 µM
- TGI [34]: 63 µM
- TGI [35]: 15.7 µM
- TGI [36]: 65.9 µM
- TGI [61]: 47.7 µM
- TGI [37]: > 100 µM
- TGI [38]: 17.9 µM
- TGI [39]: 39.1 µM
- TGI [40]: 36.6 µM
- TGI [41]: 97.1 µM
- TGI [42]: > 59.5 µM
- TGI [43]: 29 µM
- TGI [44]: > 100 µM
- TGI [45]: > 100 µM
- TGI [46]: 40.3 µM
- TGI [47]: > 68 µM
- TGI [49]: 37.8 µM
- TGI [50]: > 100 µM
- TGI [62]: > 100 µM
- TGI [51]: 23.1 µM
- TGI [63]: > 94.4 µM
- TGI [52]: > 100 µM
- TGI [53]: 35.2 µM

Reference: PubChem BioAssay (NCI)
